Numbered stars: 1 amine (or outer) side, 2 acyl side, 3 side chain; on linkers, the order of the positions; unused ones are H or OH. Square brackets hold non-standard residues; d marks the D form. Peptide text beside a SMILES is read from it. * marks the point of attachment. Apns = amino acid residue of (2S,3S)-3-amino-2-hydroxy-4-phenylbutanoic acid, O=C([C@@H](O)[C@H](Cc1ccccc1)N[*:1])[*:2]; β3hPhe(2R-OH) = O=C([C@H](O)[C@H](Cc1ccccc1)N[*:1])[*:2]; X2 = O=C([C@H](O)[C@H](CSc1ccccc1)N[*:1])[*:2]; Tetrazole5carbonyl = O=C(c1nn[nH]n1)*; 3Abz = Nc1cccc(C(=O)O)c1; Dap = NC[C@H](N)C(=O)O
molecular target: T1, recombinant human BACE-1 (rhBACE-1) (Homo sapiens, UniProt P56817); assay: BACE1 inhibitory activity, reverse phase HPLC quantitation of N-terminal fragment of fluorogenic substrate; format: biochemical; details: 1 μL of inhibitor solution in DMSO (100 μM) in 50 μL reaction; MES buffer pH 5.0; 37° C., 60 minutes
T1 construct: expressed as only an extracellular region (amino acid 1-460 residues) of recombinant human β-secretase; His tag (C); purchased R&D systems (Minneapolis, Minn.); host or cells: murine myeloma cell line NS0
Excerpt: Experiment Regarding Measurement of BACE1 Inhibitory Activity
Enzyme Used in Measurement
As an enzyme having β-secretase activity, recombinant human BACE-1 (rhBACE-1) purchased from R&D systems (Minneapolis, Minn.) was used. rhBACE-1 is expressed as only an extracellular region (amino acid 1-460 residues) of recombinant human β-secretase, with a His tag at its carboxyl terminal in murine myeloma cell line, NS0. Purified secreted rhBACE1 is a mixture of a pro entity (about 75 kDa) and a mature entity (about 72 kDa).
Assessment of Enzyme Inhibitory Activity
Enzyme inhibitory activity of an inhibitor was assessed by quantitating an N-terminal fragment produced aftercleaving the substrate with BACE1 by reverse HPLC using (7-methoxycoumarin-4-yl)acetyl-[…]2,4-dinitrophenyl)-Arg-Arg-NH2 purchased from Peptide Institute (Osaka, Japan) as a substrate for BACE1. To 40 μL of 62.5 mM 2-(N-morpholino)ethansulfonic acid (MES)-CH3COOH—NaOH buffer (pH 5.0), were added 1 μL of a solution of an inhibitor diluted with DMSO (100 μM), 4 μL of rhBACE-1 (6.25 ng/μL), and 5 μL of an aqueous solution (50% DMSO) of 250 μM substrate (7-methoxycoumarin-4-yl)acetyl-[…]2,4-dinitrophenyl)-Arg-Arg-NH2 to initiate an enzyme reaction. After incubation at 37° C. for 60 minutes, 20 μL of 20% trichloroacetic acid was added to stop the reaction. And, inhibition % was calculated by measuring a fluorescent intensity of the N-terminal fragment (Ex, 328 nm; Em, 393 nm) using reverse phase HPLC (linear gradient of MeCN in aqueous TFA; flow rate, 1.0 mL/min).
BACE1 Inhibitory Activity
Enzyme inhibitory activity of an inhibitor was assessed by quantitating a N-terminal fragment produced after cleavage of a substrate with BACE1 by reverse phase HPLC using (7-methoxycoumarin-4-yl)acetyl-[…]2,4-dinitrophenyl)-Arg-Arg-NH2 purchased from Peptide Institute (Osaka, Japan) as a substrate for BACE1. Recombinant human BACE-1 purchased from R&D systems (Minneapolis, Minn.) was used. To 40 μL of 62.5 mM 2-(N-morpholino)ethansulfonic acid (MES)-CH3COOH—NaOH buffer (pH 5.0), were added 1 μL of a solution of an inhibitor diluted with DMSO (100 μM), 4 μL of BACE1 (6.25 ng/μL), and 5 μL of an aqueous solution (50% DMSO) of 250 μM substrate (7-methoxycoumarin-4-yl)acetyl-[…]2,4-dinitrophenyl)-Arg-Arg-NH2 to initiate an enzyme reaction. After incubation at 37° C. for 60 minutes, 20 μL of 20% trichloroacetic acid was added to stop a reaction. Inhibition % was calculated by measuring a fluorescent intensity of the N-terminal fragment (Ex, 328 nm; Em, 393 nm) using reverse phase HPLC (linear gradient of MeCN in aqueous TFA; flow rate, 1.0 mL/min).

T1 sequence (P56817 22-460 limits assumed): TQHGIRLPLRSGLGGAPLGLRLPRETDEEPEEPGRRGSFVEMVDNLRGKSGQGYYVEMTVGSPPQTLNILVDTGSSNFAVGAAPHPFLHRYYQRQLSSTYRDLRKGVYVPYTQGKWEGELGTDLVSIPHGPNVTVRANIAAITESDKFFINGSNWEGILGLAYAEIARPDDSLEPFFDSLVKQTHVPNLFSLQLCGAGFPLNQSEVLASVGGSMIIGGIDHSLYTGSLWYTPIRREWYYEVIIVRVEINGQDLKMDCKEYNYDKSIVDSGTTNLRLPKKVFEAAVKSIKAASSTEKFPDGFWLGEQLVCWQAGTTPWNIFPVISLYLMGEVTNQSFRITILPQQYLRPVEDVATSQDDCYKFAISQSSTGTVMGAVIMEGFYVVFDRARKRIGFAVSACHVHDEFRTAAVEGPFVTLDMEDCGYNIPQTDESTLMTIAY

| Compound | inhibition at 2 µM [%] | Activity (BACE1 inhibition %) [%] | inhibition at 100 µM (stock) [%] |
| --- | --- | --- | --- |
| CC(C)C[C@H](NC(=O)[C@@H](NC(=O)[C@@H](N)CNC(=O)c1ccco1)C(C)C)C(=O)N[C@@H](Cc1ccccc1)[C@@H](O)C(=O)Nc1cccc(C(=O)O)c1 [Example 174] | 81.8 |  |  |
| CC(C)[C@H](NC(=O)[C@@H](N)CCC(=O)O)C(=O)N[C@@H](Cc1cccc2ccccc12)C(=O)N[C@@H](Cc1ccccc1)[C@@H](O)C(=O)Nc1cccc(C(=O)O)c1 [Example 165] | 73.7 |  |  |
| CSC[C@H](NC(=O)[C@@H](NC(=O)[C@@H](N)CCC(=O)O)C(C)C)C(=O)N[C@@H](Cc1ccccc1)[C@@H](O)C(=O)Nc1cccc(C(=O)O)c1 [Example 131] | 74.1 |  |  |
| H-Glu-Val-Leu-Pns-Asp-Gly-Glu-Phe-OH (H-EVL[β3hPhe(2R-OH)]DGEF-OH; SMILES CC(C)C[C@H](NC(=O)[C@@H](NC(=O)[C@@H](N)CCC(=O)O)C(C)C)C(=O)N[C@@H](Cc1ccccc1)[C@@H](O)C(=O)N[C@@H](CC(=O)O)C(=O)NCC(=O)N[C@@H](CCC(=O)O)C(=O)N[C@@H](Cc1ccccc1)C(=O)O) [Example 43] |  | 81.23 |  |
| COC(=O)c1cccc(C(=O)NC[C@H](N)C(=O)N[C@H](C(=O)N[C@@H](CC(C)C)C(=O)N[C@@H](Cc2ccccc2)[C@@H](O)C(=O)Nc2cccc(C(=O)O)c2)C(C)C)c1 [Example 183] |  |  | 52.1 |
| CC(C)C[C@H](NC(=O)[C@@H](NC(=O)[C@@H](N)CCC(=O)O)C(C)C)C(=O)N[C@@H](Cc1ccccc1)[C@@H](O)C(=O)Nc1cccc(C(=O)OCC(F)(F)F)c1 [Example 138] | 59.6 |  |  |
| CC(C)[C@H](NC(=O)[C@@H](N)CNC(=O)c1cc(O)ccc1O)C(=O)N[C@@H](CC1CCCCC1)C(=O)N[C@@H](Cc1ccccc1)[C@@H](O)C(=O)Nc1cccc(-c2nnn[nH]2)c1 [Example 188] |  |  | 99.5 |
| CC(C)C[C@H](NC(=O)[C@@H](NC(=O)[C@@H](N)CCC(=O)O)C(C)C)C(=O)N[C@@H](CSc1ccccc1)[C@@H](O)C(=O)N[C@@H](CC(=O)O)C(=O)N[C@@H](C)C(=O)N[C@@H](CCC(=O)O)C(=O)N[C@@H](Cc1ccccc1)C(=O)O [Example 82] (H-EVL[X2]DAEF-OH) | 81.8 |  |  |
| Cc1cccc(C(=O)NC[C@H](N)C(=O)N[C@H](C(=O)N[C@@H](CC(C)C)C(=O)N[C@@H](Cc2ccccc2)[C@@H](O)C(=O)Nc2cccc(C(=O)O)c2)C(C)C)c1O [Example 147] | 59.5 |  |  |
| CCOC(=O)c1cccc(NC(=O)c2cccc(NC(=O)[C@H](O)[C@H](Cc3ccccc3)NC(=O)[C@H](CC(C)C)NC(=O)[C@@H](NC(=O)[C@@H](N)CCC(=O)O)C(C)C)c2)c1 [Example 72] | 95 |  |  |
| CC(C)C[C@H](NC(=O)[C@@H](NC(=O)[C@@H](N)CCC(=O)O)C(C)C)C(=O)N[C@@H](Cc1ccccc1)[C@@H](O)C(=O)Nc1cc(Cl)c(OCC(=O)O)c(Cl)c1 [Example 163] | 88.3 |  |  |
| CC(C)C[C@H](NC(=O)[C@@H](NC(=O)[C@@H](N)CCC(=O)O)C(C)C)C(=O)N[C@@H](Cc1ccccc1)[C@@H](O)C(=O)N[C@@H](CC(C)C)C(=O)N[C@@H](C)C(=O)N[C@@H](CCC(=O)O)C(=O)N[C@@H](Cc1ccccc1)C(=O)O [Example 107] (H-EVL[β3hPhe(2R-OH)]LAEF-OH) | 52.1 |  |  |
| CC(C)C[C@H](NC(=O)[C@@H](NC(=O)[C@@H](N)CNC(=O)c1ccc(O)cc1)C(C)C)C(=O)N[C@@H](Cc1ccccc1)[C@@H](O)C(=O)Nc1cccc(C(=O)O)c1 [Example 154] | 69.9 |  |  |
| CC(C)C[C@H](NC(=O)[C@@H](NC(=O)[C@@H](N)CNC(=O)c1nnn[nH]1)C(C)C)C(=O)N[C@@H](Cc1ccccc1)[C@@H](O)C(=O)N[C@@H](CC(=O)O)C(=O)N[C@@H](C)C(=O)N[C@@H](CCC(=O)O)C(=O)O [Example 73] (H-[Dap](Tetrazole5carbonyl)VL[β3hPhe(2R-OH)]DAE-OH) | 93 |  |  |
| CC(C)C[C@H](NC(=O)[C@@H](NC(=O)[C@@H](N)CCC(=O)O)C(C)C)C(=O)N[C@@H](Cc1ccccc1)[C@@H](O)C(=O)Nc1cc(Cl)cc(Cl)c1 [Example 156] |  |  | 78.3 |
| CC(C)C[C@H](NC(=O)[C@@H](NC(=O)[C@@H](N)CNC(=O)c1cc(=O)[nH]c(=O)[nH]1)C(C)C)C(=O)N[C@@H](Cc1ccccc1)[C@@H](O)C(=O)Nc1cccc(C(=O)O)c1 [Example 142] | 89.8 |  |  |
| CC(C)C[C@H](NC(=O)[C@@H](NC(=O)[C@@H](N)CNC(=O)c1nnn[nH]1)C(C)C)C(=O)N[C@@H](Cc1ccccc1)[C@@H](O)C(=O)Nc1cccc(-c2nnn[nH]2)c1 [Example 185] |  |  | 100 |

Continued, in another order:

| inhibition at 2 µM [%] | Activity (BACE1 inhibition %) [%] | Compound | inhibition at 100 µM (stock) [%] |
| --- | --- | --- | --- |
| 85.3 |  | CC(C)C[C@H](NC(=O)[C@@H](NC(=O)[C@@H](N)CCC(=O)O)C(C)C)C(=O)N[C@@H](Cc1ccccc1)[C@@H](O)C(=O)N[C@@H](CC(=O)O)C(=O)Nc1cccc(C(=O)O)c1 [Example 79] (H-EVL[β3hPhe(2R-OH)]D[3Abz]-OH) |  |
| 99.6 |  | CC(C)[C@H](NC(=O)[C@@H](N)CNC(=O)C(=O)O)C(=O)N[C@@H](CC1CCCCC1)C(=O)N[C@@H](Cc1ccccc1)[C@@H](O)C(=O)Nc1cc(C(=O)O)cc(C(=O)O)c1 [Example 134] |  |
| 73.4 |  | Cc1cc(NC(=O)[C@H](O)[C@H](Cc2ccccc2)NC(=O)[C@H](CC(C)C)NC(=O)[C@@H](NC(=O)[C@@H](N)CCC(=O)O)C(C)C)cc(C)c1OCC(=O)O [Example 178] |  |
| 67.5 |  | CCCC[C@H](NC(=O)[C@@H](NC(=O)[C@@H](N)CCC(=O)O)C(C)C)C(=O)N[C@@H](Cc1ccccc1)[C@@H](O)C(=O)Nc1cccc(C(=O)O)c1 [Example 141] |  |
| 89.5 |  | CC(C)C[C@H](NC(=O)[C@@H](NC(=O)[C@@H](N)CNC(=O)c1cccc(O)c1O)C(C)C)C(=O)N[C@@H](Cc1ccccc1)[C@@H](O)C(=O)Nc1cccc(C(=O)O)c1 [Example 172] |  |
| 54.4 |  | CCOC(=O)C(=O)NC[C@H](N)C(=O)N[C@H](C(=O)N[C@@H](CC(C)C)C(=O)N[C@@H](Cc1ccccc1)[C@@H](O)C(=O)Nc1cc(C(=O)OC)cc(C(=O)OC)c1)C(C)C [Example 104] |  |
| 64.7 |  | CCC[C@H](NC(=O)[C@@H](NC(=O)[C@@H](N)CCC(=O)O)C(C)C)C(=O)N[C@@H](Cc1ccccc1)[C@@H](O)C(=O)Nc1cccc(C(=O)O)c1 [Example 161] |  |
| 98.5 |  | CC(C)C[C@H](NC(=O)[C@@H](NC(=O)[C@@H](N)CNC(=O)c1cc(N)cc(C(=O)O)c1)C(C)C)C(=O)N[C@@H](CSc1ccccc1)[C@@H](O)C(=O)Nc1cccc(C(=O)O)c1 [Example 177] |  |
|  | 53.38 | H-Glu-Val-Leu-Apns-Asp-Ala-Glu-Phe-OH ({H2N-Glu-Val-Leu-Apns}-DAEF-OH; SMILES CC(C)C[C@H](NC(=O)[C@@H](NC(=O)[C@@H](N)CCC(=O)O)C(C)C)C(=O)N[C@@H](Cc1ccccc1)[C@H](O)C(=O)N[C@@H](CC(=O)O)C(=O)N[C@@H](C)C(=O)N[C@@H](CCC(=O)O)C(=O)N[C@@H](Cc1ccccc1)C(=O)O) [Example 18] |  |
| 61.4 |  | CC(C)[C@H](NC(=O)[C@@H](NC(=O)[C@@H](N)CCC(=O)O)C(C)C)C(=O)N[C@@H](Cc1ccccc1)[C@@H](O)C(=O)N[C@@H](CC(=O)O)C(=O)N[C@@H](C)C(=O)N[C@@H](CCC(=O)O)C(=O)N[C@@H](Cc1ccccc1)C(=O)O [Example 123] (H-EVV[β3hPhe(2R-OH)]DAEF-OH) |  |
|  | 55.88 | H-Glu-Val-Leu-Pns-Asp-Ala-Gln-Phe-OH (H-EVL[β3hPhe(2R-OH)]DAQF-OH; SMILES CC(C)C[C@H](NC(=O)[C@@H](NC(=O)[C@@H](N)CCC(=O)O)C(C)C)C(=O)N[C@@H](Cc1ccccc1)[C@@H](O)C(=O)N[C@@H](CC(=O)O)C(=O)N[C@@H](C)C(=O)N[C@@H](CCC(N)=O)C(=O)N[C@@H](Cc1ccccc1)C(=O)O) [Example 28] |  |

same assay, conditions: pH 5, 100 µM

| Activity (BACE1 inhibition %) [%] | Compound |
| --- | --- |
| 56.30 | H-Glu-Val-Leu-Pns-Asp-Ala-Gly-Phe-OH [Example 44] |

Reference: US7312188B2, “Peptide derivatives having β-secretase inhibitory activity” (priority 2003, dated 2007)
